Reference: patent US6268181A, “Methods for producing a potentiator of Bacillus pesticidal activity” (Valent BioSciences, Corporation, priority 1998, dated 2001)

What was measured:
Phytophthora medicaginis = conditions: cited from earlier work
Spodoptera exigua = Spodoptera exigua micro-bioassay (potentiation of Bt Cry protein by Ia); type: in vivo; conditions: for Mortality: after 2 days
Protocol: Activity is monitored by a Spodoptera exigua micro-bioassay, and purity is determined by capillary electrophoresis. […] The trays containing the various samples are air dried. Two to four 2nd or early 3rd instar Spodoptera exigua are added to the wells containing the dried sample. The wells are sealed with mylar poked with holes and are incubated for 2-3 days at 30° C. Degree of stunting and percent mortality are then recorded. Typically, 5 replicate wells are run for each sample.
*Mortality = # insects dead/# total insects after 2 days
.dagger.Stunt score is defined by the average size of the live insect
larvae at the end of the bioassay: 4.0 = untreated control, 3.0 = 75% size
of untreated control, 2.0 = 50% size of untreated control, 1.0 = 25% size
of untreated control, 0.0 = no growth or size unchanged from start of […]

[1] = Table II, 120 μg/ml, without Ia
[2] = Table II, 240 μg/ml, without Ia

For `NC(=O)NCC(NC(=O)C(O)C(O)C(N)C(O)CC(O)C(N)CO)C(N)=O` (stereo not shown) [zwittermicin A], the infection of alfalfa (Phytophthora medicaginis; alfalfa) is listed as “reduces the infection” and the “growth of Phytophthora medicaginis” value (Phytophthora medicaginis; plant pathogen) is listed as “inhibits the growth”.
In the case of “CryIA(c): Bt crystal delta-endotoxin; truncated in Table I, full-length (130 kDa) in Table II”, the “Stunt Score” value (Spodoptera exigua; Table II, 0.8 μg/ml, with Ia) is reported as 1.6, the Mortality (Spodoptera exigua; Table II, 0.8 μg/ml, with Ia) is reported as 2/5 and the “Stunt Score” value (Spodoptera exigua; Table II, 3 μg/ml, with Ia) is reported as 1.0. The Mortality (Spodoptera exigua; Table II, 3 μg/ml, with Ia) was 4/5, the “Stunt Score” value (Spodoptera exigua; Table II, 15 μg/ml, with Ia) was 0.0 and the Mortality (Spodoptera exigua; Table II, 15 μg/ml, with Ia) was 4/5. For the same compound, the Mortality (Spodoptera exigua; Table II, 30 μg/ml, with Ia) was 5/5, the “Stunt Score” value (Spodoptera exigua; Table II, 30 μg/ml, without Ia) was 4.0 and the Mortality (Spodoptera exigua; Table II, 30 μg/ml, without Ia) was 0/5. For the same compound, the Mortality (Spodoptera exigua; Table II, 60 μg/ml, with Ia) was 5/5, the “Stunt Score” value (Spodoptera exigua; Table II, 60 μg/ml, without Ia) was 2.2 and the Mortality (Spodoptera exigua; Table II, 60 μg/ml, without Ia) was 0/5. The “Stunt Score” value (Spodoptera exigua; [1]) was 2.2, the Mortality (Spodoptera exigua; [1]) was 0/5 and the “Stunt Score” value (Spodoptera exigua; [2]) was 0.5. For the same compound, the Mortality (Spodoptera exigua; [2]) was 1/5, the “concentration giving same mortality/stunt score as protein with Ia” value (Spodoptera exigua; protein alone, full-length CryIA(c), CryII, CryIC) was 240 µg/mL and the Mortality (Spodoptera exigua; truncated Bt protein, OD280 0.0006, with Ia) was 1/5. The “Stunt Score” value (Spodoptera exigua; truncated Bt protein, OD280 0.0006, with Ia, 4.0 = untreated control, 0.0 = no growth) was 1.0, the Mortality (Spodoptera exigua; truncated Bt protein, OD280 0.0012, with Ia) was 0/5 and the “Stunt Score” value (Spodoptera exigua; truncated Bt protein, OD280 0.0012, with Ia, 4.0 = untreated control, 0.0 = no growth) was 1.0. For the same compound, the Mortality (Spodoptera exigua; truncated Bt protein, OD280 0.0025, with Ia) was 2/5, the “Stunt Score” value (Spodoptera exigua; truncated Bt protein, OD280 0.0025, with Ia, 4.0 = untreated control, 0.0 = no growth) was 2.0 and the Mortality (Spodoptera exigua; truncated Bt protein, OD280 0.005, with Ia) was 1/5. The “Stunt Score” value (Spodoptera exigua; truncated Bt protein, OD280 0.005, with Ia, 4.0 = untreated control, 0.0 = no growth) was 0.0, the Mortality (Spodoptera exigua; truncated Bt protein, OD280 0.010, with Ia) was 0/5 and the “Stunt Score” value (Spodoptera exigua; truncated Bt protein, OD280 0.010, with Ia, 4.0 = untreated control, 0.0 = no growth) was 0.2. The Mortality (Spodoptera exigua; truncated Bt protein, OD280 0.020, with Ia) was 1/5, the “Stunt Score” value (Spodoptera exigua; truncated Bt protein, OD280 0.020, with Ia, 4.0 = untreated control, 0.0 = no growth) was 0.0 and the Mortality (Spodoptera exigua; truncated Bt protein, OD280 0.020, without Ia) was 0/5. The “Stunt Score” value (Spodoptera exigua; truncated Bt protein, OD280 0.020, without Ia, 4.0 = untreated control, 0.0 = no growth) was 2.8, the Mortality (Spodoptera exigua; truncated Bt protein, OD280 0.040, without Ia) was 0/5 and the “Stunt Score” value (Spodoptera exigua; truncated Bt protein, OD280 0.040, without Ia, 4.0 = untreated control, 0.0 = no growth) was 2.6. The Mortality (Spodoptera exigua; truncated Bt protein, OD280 0.075, without Ia) was 0/5, the “Stunt Score” value (Spodoptera exigua; truncated Bt protein, OD280 0.075, without Ia, 4.0 = untreated control, 0.0 = no growth) was 3.4 and the “OD280 giving same stunt score as protein with Ia” value (Spodoptera exigua; truncated CryIA(c), tested alone) was 0.075 OD280. The “OD280 giving same stunt score as protein alone” value (Spodoptera exigua; truncated CryIA(c), with Ia) was 0.0006 OD280 and the “concentration giving same mortality/stunt score as protein alone” value (Spodoptera exigua; with Ia, full-length CryIA(c), CryII inclusions, CryIC inclusions) was 0.75 µg/mL.
